From ChEMBL document CHEMBL1132051, “4-Alkyl- and 3,4-dialkyl-1,2,3,4-tetrahydro-8-pyridono[5,6-g]quinolines: potent, nonsteroidal androgen receptor agonists” (Bioorg Med Chem Lett, 1999)

Columns and labels:
Androgen receptor [1] = target: T1, Androgen receptor (Homo sapiens, UniProt P10275)
T1 sequence (P10275 whole entry): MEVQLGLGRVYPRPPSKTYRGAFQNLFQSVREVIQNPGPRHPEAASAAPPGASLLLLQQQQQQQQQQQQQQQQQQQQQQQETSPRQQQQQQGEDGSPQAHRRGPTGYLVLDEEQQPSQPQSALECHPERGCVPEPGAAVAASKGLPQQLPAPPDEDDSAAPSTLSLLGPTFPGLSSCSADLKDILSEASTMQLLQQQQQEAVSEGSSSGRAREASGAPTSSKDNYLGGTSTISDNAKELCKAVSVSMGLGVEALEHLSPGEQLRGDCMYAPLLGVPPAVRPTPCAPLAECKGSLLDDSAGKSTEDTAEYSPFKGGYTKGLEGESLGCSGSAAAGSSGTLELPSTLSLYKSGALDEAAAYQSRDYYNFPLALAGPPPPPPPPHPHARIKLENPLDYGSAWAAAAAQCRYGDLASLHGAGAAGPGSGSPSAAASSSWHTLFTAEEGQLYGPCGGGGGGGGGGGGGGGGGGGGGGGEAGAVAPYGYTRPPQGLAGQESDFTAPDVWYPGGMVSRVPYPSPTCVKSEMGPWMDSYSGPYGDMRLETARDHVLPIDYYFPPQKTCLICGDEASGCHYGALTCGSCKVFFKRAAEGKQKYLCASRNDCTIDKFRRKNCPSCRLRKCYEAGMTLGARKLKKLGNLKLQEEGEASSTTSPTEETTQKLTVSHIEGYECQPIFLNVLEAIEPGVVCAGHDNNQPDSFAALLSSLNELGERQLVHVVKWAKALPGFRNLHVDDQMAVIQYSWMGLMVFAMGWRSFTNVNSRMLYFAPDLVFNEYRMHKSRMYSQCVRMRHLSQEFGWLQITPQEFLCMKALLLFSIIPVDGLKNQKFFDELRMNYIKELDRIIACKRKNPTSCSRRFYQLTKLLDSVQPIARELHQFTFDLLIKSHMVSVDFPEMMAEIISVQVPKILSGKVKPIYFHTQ
Description: Agonist activity to the human androgen receptor (hAR) in CV-1 cells

Androgen receptor [2] = target: T1, Androgen receptor; remark: listed apart in the source
Description: Binding affinity to the human androgen receptor (hAR), using [3H]DHT as radioligand in a competitive binding assay

Androgen receptor [3] = target: T1, Androgen receptor; remark: listed apart in the source
Description: Antagonistic activity against human androgen receptor (hAR) in CV-1 cells using cotransfection assay

Androgen receptor [4] = target: T1, Androgen receptor; assay: Antagonistic activity against human androgen receptor (hAR) in CV-1 cells was determined as a function of maximal inhibition of dihydrotestosterone using cotransfection assay; format: functional, cell-based

SMILES	EC50 (Androgen receptor [1])	Ki (Androgen receptor [2])	IC50 (Androgen receptor [3])	IC50 (Androgen receptor [4])
C[C@@H]1CNc2cc3[nH]c(=O)cc(C(F)(F)F)c3cc2[C@@H]1CCC(F)(F)F	82 nM	> 1000 nM	63 nM	–
Oc1cc(C(F)(F)F)c2cc3c(cc2n1)NC[C@H]1CCCC[C@H]31	2 nM	15 nM	–	> 10000 nM
CC(C)C1CCNc2cc3[nH]c(=O)cc(C(F)(F)F)c3cc21 (stereo unspecified)	3 nM	13 nM	> 10000 nM	–
CCC1CCNc2cc3c(cc21)c(C(F)(F)F)cc(=O)n3C (stereo unspecified)	> 10000 nM	9 nM	20 nM	–
CCC1CCN(C=O)c2cc3nc(O)cc(C(F)(F)F)c3cc21 (stereo unspecified)	137 nM	> 1000 nM	–	> 10000 nM
CCC1CCN(C)c2cc3c(cc21)c(C(F)(F)F)cc(=O)n3C (stereo unspecified)	> 10000 nM	263 nM	216 nM	–
O=c1cc(C(F)(F)F)c2cc3c(cc2[nH]1)NC[C@@H]1CCC[C@H]31	9 nM	8 nM	> 10000 nM	–
CCC1CCN(C)c2cc3[nH]c(=O)cc(C(F)(F)F)c3cc21 (stereo unspecified)	158 nM	630 nM	> 10000 nM	–
CCCC1CCNc2cc3nc(O)cc(C(F)(F)F)c3cc21 (stereo unspecified)	19 nM	29 nM	> 10000 nM	–
CC1(C)CCNc2cc3[nH]c(=O)cc(C(F)(F)F)c3cc21	68 nM	12 nM	16 nM	–
C[C@H]1CNc2cc3nc(O)cc(C(F)(F)F)c3cc2C1CCC(F)(F)F (stereo partly specified)	13 nM	2 nM	–	61 nM
CC1c2cc3c(C(F)(F)F)cc(O)nc3cc2NC[C@H]1C (stereo partly specified)	22 nM	8 nM	–	> 10000 nM
CC(C)CC1CCNc2cc3nc(O)cc(C(F)(F)F)c3cc21 (stereo unspecified)	25 nM	22 nM	–	> 10000 nM
CCC1(CC)CCNc2cc3nc(O)cc(C(F)(F)F)c3cc21	> 10000 nM	58 nM	73 nM	–
CC1CCNc2cc3nc(O)cc(C(F)(F)F)c3cc21 (stereo unspecified)	15 nM	9 nM	259 nM	–
O=c1cc(C(F)(F)F)c2cc3c(cc2[nH]1)NCCC3c1cc(C(F)(F)F)cc(C(F)(F)F)c1 (stereo unspecified)	> 10000 nM	> 1000 nM	251 nM	–
Oc1cc(C(F)(F)F)c2cc3c(cc2n1)NCCC3	317 nM	19 nM	12 nM	–
CCC1c2cc3c(C(F)(F)F)cc(=O)[nH]c3cc2NC[C@@H]1C (stereo partly specified)	7 nM	8 nM	2710 nM	–
Oc1cc(C(F)(F)F)c2cc3c(cc2n1)NC[C@@H]1CCCC[C@H]31	3 nM	2 nM	> 10000 nM	–
CC1c2cc3c(C(F)(F)F)cc(O)nc3cc2NC[C@@H]1C (stereo partly specified)	10 nM	16 nM	–	> 10000 nM
CC(C)C[C@H]1c2cc3c(C(F)(F)F)cc(=O)[nH]c3cc2NC[C@@H]1C (relative stereo)	56 nM	72 nM	29 nM	–
CC[C@H]1c2cc3c(C(F)(F)F)cc(=O)[nH]c3cc2NC[C@H]1C (relative stereo)	7 nM	27 nM	–	> 10000 nM
